Values of other authors in patent US9333228B2, “Nutritional supplement for recovery, repair, and maintenance” (Top Doctors Labs, LLC, priority 2010, dated 2016).

Test system: osteoporotic fractures
Settings: human clinical studies; vitamin K2 as MK-4

SMILES: CC(C)=CCC/C(C)=C/CC/C(C)=C/CC/C(C)=C/CC1=C(C)C(=O)c2ccccc2C1=O [vitamin K2, menatetranone]
- lower risk of osteoporotic fractures: up to 81%
